In ChEMBL document CHEMBL4699396, “Macrocyclic peptidomimetics as inhibitors of insulin-regulated aminopeptidase (IRAP)” (RSC Med Chem, 2020) one finds deltaG data, which are given here for two molecules.

The test system of the experiment is Insulin-regulated aminopeptidase (Homo sapiens). Description: Binding affinity to recombinant full length human IRAP expressed in HEK293T cells assessed as binding free energy.

With `N[C@H]1CC/C=C\CC[C@@H](C(=O)NCc2ccccc2CC(=O)O)NC(=O)C[C@H](Cc2ccc(O)cc2)NC1=O`, the deltaG is -44.6 kJ/mol. In the case of `N[C@H]1CC/C=C/CC[C@@H](C(=O)NCc2ccccc2CC(=O)O)NC(=O)C[C@H](Cc2ccc(O)cc2)NC1=O`, the deltaG was -51.9 kJ/mol.
